Assay results from patent publication US20230390278A1, “SYNERGISTIC COMBINATIONS OF VALPROOIC ACID AND QUINACRINE” (VESTLANDETS INNOVASJONSSELSKAP AS, priority 2020, published 2023).
Like-named read-outs stand apart in the source and are kept apart here.

Columns and labels:
[1] = Plasma levels of QC and VPA in blood of off-label treated AML patients, measured by LC/MS; assay type: in vivo, human; conditions: for concentration at 3 h: 3 h after intake; for concentration at 25 day: Patient 1, day 25, QC 200 mg/day, VPA 600 + 1200 mg/day; for concentration at 64 day: Patient 1, day 64, QC 300 mg/day; for concentration at 163 day: Patient 1, day 163, QC 400 mg/day; for concentration at 65 day: Patient 2, day 65, QC 200 mg/day
Excerpt: The plasma concentration may be the blood plasma concentration or bone marrow plasma concentration. […] Plasma concentrations may be determined by liquid chromatography-mass spectrometry (LC-MS).

[2] = Plasma levels of QC and VPA in bone marrow (BM) of off-label treated AML patients, measured by LC/MS; assay type: in vivo, human
[3] = human, oral, VPA 300 + 600 mg/day, read-out: Plasma QC
[4] = human, oral, Plasma VPA, VPA 300 + 600 mg/day

Compound: CCN(CC)CCCC(C)Nc1c2ccc(Cl)cc2nc2ccc(OC)cc12 (racemic) [QC, (RS)-N′-(6-chloro-2-methoxy-acridin-9-yl)-N, N-diethyl-pentane-1,4-diamine]
- concentration at 3 h ([1]; human, oral, Patient 1, day 1, QC 100 mg/day, VPA 300 + 300 mg/day, read-out: Plasma QC): 4 nM
- concentration at 25 day ([1]; human, oral, read-out: Plasma QC): 52 nM
- concentration at 64 day ([1]; human, oral, VPA 600 + 900 mg/day, read-out: Plasma QC): 138 nM
- concentration at 128 day ([1]; human, oral, Patient 1, day 128, QC 400 mg/day, VPA 600 + 900 mg/day): 38 nM
- concentration at 163 day [1, 3]: 38 nM
- concentration at 3 h ([1]; human, oral, Patient 2, day 1, QC 100 mg/day, VPA 300 + 600 mg/day, read-out: Plasma QC): 8 nM
- concentration at 15 day ([1]; human, oral, Patient 2, day 15, QC 200 mg/day, VPA 600 + 600 mg/day, read-out: Plasma QC): 18 nM
- concentration at 65 day [1, 3]: 130 nM
- concentration at 3 h ([1]; human, oral, Patient 3, day 1, QC 100 mg/day, VPA 300 + 300 mg/day, read-out: Plasma QC): 8 nM
- concentration at 15 day ([1]; human, oral, Patient 3, day 15, QC 300 mg/day, VPA 300 + 600 mg/day, read-out: Plasma QC): 300 nM
- Plasma QC, BM ([2]; Patient 1, day 163, QC 400 mg/day, VPA 300 + 600 mg/day): BM: 44 nM
- Plasma QC, BM ([2]; Patient 2, day 15, QC 200 mg/day, VPA 600 + 600 mg/day): BM: 32 nM
- Plasma QC, BM ([2]; Patient 2, day 65, QC 200 mg/day, VPA 300 + 600 mg/day): BM: 332 nM

Compound: CCCC(CCC)C(=O)O [VPA, 2-propylvaleric acid]
- Plasma VPA ([1]; Patient 1, day 128, QC 400 mg/day, VPA 600 + 900 mg/day, neg: negative): neg
- concentration at 3 h ([1]; human, oral, Plasma VPA, Patient 1, day 1, QC 100 mg/day, VPA 300 + 300 mg/day): 17100 nM
- concentration at 25 day ([1]; human, oral, Plasma VPA): 43000 nM
- concentration at 64 day ([1]; human, oral, Plasma VPA, VPA 600 + 900 mg/day): 25600 nM
- concentration at 163 day [1, 4]: 119000 nM
- concentration at 3 h ([1]; human, oral, Plasma VPA, Patient 2, day 1, QC 100 mg/day, VPA 300 + 600 mg/day): 156000 nM
- concentration at 15 day ([1]; human, oral, Plasma VPA, Patient 2, day 15, QC 200 mg/day, VPA 600 + 600 mg/day): 442000 nM
- concentration at 65 day [1, 4]: 341000 nM
- concentration at 3 h ([1]; human, oral, Plasma VPA, Patient 3, day 1, QC 100 mg/day, VPA 300 + 300 mg/day): 120000 nM
- concentration at 15 day ([1]; human, oral, Plasma VPA, Patient 3, day 15, QC 300 mg/day, VPA 300 + 600 mg/day): 41300 nM
